Data: patent US20080274892A1, “Novel Haloalkylsulfonanilide Derivative, Herbicide, and Method of Use Thereof” (priority 2005, published 2008)

Legend:
[1] = system: bulrush; test: Test Example 1: herbicidal efficacy on rice paddy weeds pre-emergence; assay type: in vivo, Scirpus juncoides; conditions: 21 days
[2] = system: false pimpernel; test: as above; assay type: in vivo, Lindernia pyxidaria; conditions: 21 days
[3] = system: barnyard glass; test: Test Example 2: herbicidal efficacy on rice paddy weeds post-emergence; assay type: in vivo, Echinochloa crus-galli; conditions: post-emergence, one leaf stage, 21 days after treatment
Method in brief: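 Plastic pots of 75 cm^2 were filled with clay loam soil and sown with barnyard glass and bulrush seeds, then topped with 75 cm^3 soil containing false pimpernel seeds. The pots were flooded to 5 cm water depth and held in a hot house. Twenty-one days after treatment, herbicidal efficacy was graded against an untreated control.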

[4] = system: bulrush; test: as above; assay type: in vivo, Scirpus juncoides; conditions: post-emergence, one leaf stage, 21 days after treatment
[5] = system: false pimpernel; test: as above; assay type: in vivo, Lindernia pyxidaria; conditions: post-emergence, one leaf stage, 21 days after treatment
[6] = system: paddy rice plant (cultivar: Nihonbare); test: Test Example 3: phytotoxicity test for transplanted paddy rice plant; assay type: in vivo; conditions: transplanted rice, 21 days after treatment
Method in brief: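 Clay loam soil was placed in a 75 cm^2 plastic pot and flooded to a water depth of 5 cm. Two Nihonbare paddy rice plants at the two-leaf stage were transplanted 1 cm deep and grown in a hot house. After treatment, pots stayed in the hot house for 21 days, and phytotoxicity was then graded against an untreated control.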

[7] = system: bulrush; test: Test Example 4: low dosage test for rice paddy weeds; assay type: in vivo, Scirpus juncoides; conditions: 300 g/ha as an active ingredient; plants treated at the one leaf stage; 21 days after treatment; vs untreated control
Text: (§1) The standard of judgment for herbicidal efficacy (degree of growth inhibition) and phytotoxicity 4 . . . 90%-100% of herbicidal efficacy or phytotoxicity 3 . . . 70%-89% of herbicidal efficacy or phytotoxicity 2 . . . 40%-69% of herbicidal efficacy or phytotoxicity 1 . . . 1%-39% of herbicidal efficacy or phytotoxicity 0 . . . 0% of herbicidal efficacy or phytotoxicity
A 75 cm^2 plastic pot was filled with soil (clay loam) and planted seeds of bulrush which is a rice paddy weed. After covering the top with 75 cm^3 soil, the pot was filled with water so that the soil submerged under 5 cm depth of water and kept in a hot house. The test plants, at the one leaf stage, were treated with the solution of a formulation containing the compound of the present invention as an active ingredient at the predetermined effective dosage (300 g/ha as an active ingredient). The pots were kept in a hot house for 21 days after the treatment and the herbicidal efficacy was investigated and evaluated according to the standard in Test Example 1 by comparing with the untreated control. Further, as a comparative compound, the compound No. 6-28 described in the JP-A-2004-107322 was used.

[8] = system: transplanted paddy rice plant and Bulrush; test: Test Example 5: selectivity between transplanted paddy rice plant and weeds; assay type: in vivo; conditions: (highest dosage with no phytotoxicity to paddy rice)/(lowest dosage with effective level 4 on Bulrush); rice 3000-100 g/ha, Bulrush 300-10 g/ha; 21 days
Protocol: as §1
Phytotoxicity test for transplanted paddy rice plants was carried out, as in Test Example 3, by the treatment of 3000, 1000, 300 and 100 (g/ha of the active ingredient) dosage, and herbicidal test to weed post-emergence was carried out to Burlush seeded as in Test Example 2 treating at 300, 100, 30 and 10 (g/ha) dosage. The pots were kept in a hot house for 21 days after the treatment, and the phytotoxicity and the herbicidal efficacy was investigated and evaluated according to the standard in Test Example 1 by comparing with the untreated control. […] Further, as a comparative compound, the compound No. 6-28 described in the JP-A-2004-107322 was used.

[9] = dosage 1000 g/ha, treated 5 days after transplantation

| Structure (SMILES) | Bulrush pre (herbicidal efficacy grade) ([1]; dosage 1000 g/ha) | False pimpernel pre (herbicidal efficacy grade) ([2]; dosage 1000 g/ha) | Burnyard grass post (herbicidal efficacy grade) ([3]; dosage 1000 g/ha) | Bulrush post (herbicidal efficacy grade) ([4]; dosage 1000 g/ha) | False pimpernel post (herbicidal efficacy grade) ([5]; dosage 1000 g/ha) | Phytotoxicity to paddy rice [6, 9] | Herbicide effect to Bulrush [7] | Selective Index [8] | Bulrush pre (herbicidal efficacy grade) ([1]; dosage 300 g/ha) | False pimpernel pre (herbicidal efficacy grade) ([2]; dosage 300 g/ha) | Burnyard grass post (herbicidal efficacy grade) ([3]; dosage 300 g/ha) | Bulrush post (herbicidal efficacy grade) ([4]; dosage 300 g/ha) | False pimpernel post (herbicidal efficacy grade) ([5]; dosage 300 g/ha) | Phytotoxicity to paddy rice ([6]; dosage 300 g/ha) |
| --- | --- | --- | --- | --- | --- | --- | --- | --- | --- | --- | --- | --- | --- | --- |
| CC(C)OC(=O)N(c1ccccc1CN1CC(C)(C)OC1=O)S(=O)(=O)C(F)(F)F [1-76] | 4 (90%-100% of herbicidal efficacy or phytotoxicity) | 4 (90%-100% of herbicidal efficacy or phytotoxicity) | 4 (90%-100% of herbicidal efficacy or phytotoxicity) | 4 (90%-100% of herbicidal efficacy or phytotoxicity) | 4 (90%-100% of herbicidal efficacy or phytotoxicity) | 2 (40%-69% of herbicidal efficacy or phytotoxicity) | 4 (90%-100% of herbicidal efficacy or phytotoxicity) | 30 |  |  |  |  |  |  |
| CCC1(C)CN(Cc2ccccc2N(C(=O)OCC(C)C)S(=O)(=O)C(F)(F)F)C(=S)O1 (stereo not shown) [1-181] | 4 (90%-100% of herbicidal efficacy or phytotoxicity) | 4 (90%-100% of herbicidal efficacy or phytotoxicity) | 4 (90%-100% of herbicidal efficacy or phytotoxicity) | 4 (90%-100% of herbicidal efficacy or phytotoxicity) | 4 (90%-100% of herbicidal efficacy or phytotoxicity) | 1 (1%-39% of herbicidal efficacy or phytotoxicity) | 4 (90%-100% of herbicidal efficacy or phytotoxicity) | 10 |  |  |  |  |  |  |
| CC1(C(F)(F)F)CN(Cc2ccccc2NS(=O)(=O)C(F)(F)F)C(=O)O1 (stereo not shown) [1-135] |  |  |  |  |  |  | 3 (70%-89% of herbicidal efficacy or phytotoxicity) | 3 | 4 (90%-100% of herbicidal efficacy or phytotoxicity) | 4 (90%-100% of herbicidal efficacy or phytotoxicity) | 2 (40%-69% of herbicidal efficacy or phytotoxicity) | 4 (90%-100% of herbicidal efficacy or phytotoxicity) | 4 (90%-100% of herbicidal efficacy or phytotoxicity) | 1 (1%-39% of herbicidal efficacy or phytotoxicity) |
| CCCC1(CC)CN(Cc2ccccc2N(C(=O)OC)S(=O)(=O)C(F)(F)F)C(=O)O1 (stereo not shown) [1-144] | 4 (90%-100% of herbicidal efficacy or phytotoxicity) | 4 (90%-100% of herbicidal efficacy or phytotoxicity) | 4 (90%-100% of herbicidal efficacy or phytotoxicity) | 4 (90%-100% of herbicidal efficacy or phytotoxicity) | 4 (90%-100% of herbicidal efficacy or phytotoxicity) | 1 (1%-39% of herbicidal efficacy or phytotoxicity) | 4 (90%-100% of herbicidal efficacy or phytotoxicity) | 10 |  |  |  |  |  |  |
| CCCC1(CC)CN(Cc2ccccc2N(C(=O)OCC(C)C)S(=O)(=O)C(F)(F)F)C(=O)O1 (stereo not shown) [1-132] | 4 (90%-100% of herbicidal efficacy or phytotoxicity) | 4 (90%-100% of herbicidal efficacy or phytotoxicity) | 4 (90%-100% of herbicidal efficacy or phytotoxicity) | 4 (90%-100% of herbicidal efficacy or phytotoxicity) | 4 (90%-100% of herbicidal efficacy or phytotoxicity) | 1 (1%-39% of herbicidal efficacy or phytotoxicity) | 4 (90%-100% of herbicidal efficacy or phytotoxicity) | 10 |  |  |  |  |  |  |
| COC(=O)N(c1ccccc1CN1C(=O)OC(C)(C)C1=O)S(=O)(=O)C(F)(F)F [1-188] | 4 (90%-100% of herbicidal efficacy or phytotoxicity) | 4 (90%-100% of herbicidal efficacy or phytotoxicity) | 4 (90%-100% of herbicidal efficacy or phytotoxicity) | 4 (90%-100% of herbicidal efficacy or phytotoxicity) | 4 (90%-100% of herbicidal efficacy or phytotoxicity) | 1 (1%-39% of herbicidal efficacy or phytotoxicity) | 4 (90%-100% of herbicidal efficacy or phytotoxicity) | ≧10 |  |  |  |  |  |  |
| CC1CN(Cc2ccccc2NS(=O)(=O)C(F)(F)F)C(=O)O1 (stereo not shown) [1-17] | 4 (90%-100% of herbicidal efficacy or phytotoxicity) | 4 (90%-100% of herbicidal efficacy or phytotoxicity) | 4 (90%-100% of herbicidal efficacy or phytotoxicity) | 4 (90%-100% of herbicidal efficacy or phytotoxicity) | 4 (90%-100% of herbicidal efficacy or phytotoxicity) | 0 (0% of herbicidal efficacy or phytotoxicity) | 3 (70%-89% of herbicidal efficacy or phytotoxicity) | 10 |  |  |  |  |  |  |
| CC1(C)CN(Cc2ccccc2N(C(=O)Oc2ccccc2)S(=O)(=O)C(F)(F)F)C(=O)O1 [1-85] | 4 (90%-100% of herbicidal efficacy or phytotoxicity) | 4 (90%-100% of herbicidal efficacy or phytotoxicity) | 4 (90%-100% of herbicidal efficacy or phytotoxicity) | 4 (90%-100% of herbicidal efficacy or phytotoxicity) | 4 (90%-100% of herbicidal efficacy or phytotoxicity) | 2 (40%-69% of herbicidal efficacy or phytotoxicity) | 4 (90%-100% of herbicidal efficacy or phytotoxicity) | 10 |  |  |  |  |  |  |
| CC(C)OCCOC(=O)N(c1ccccc1CN1CC(C)(C)OC1=O)S(=O)(=O)C(F)(F)F [1-78] | 4 (90%-100% of herbicidal efficacy or phytotoxicity) | 4 (90%-100% of herbicidal efficacy or phytotoxicity) | 4 (90%-100% of herbicidal efficacy or phytotoxicity) | 4 (90%-100% of herbicidal efficacy or phytotoxicity) | 4 (90%-100% of herbicidal efficacy or phytotoxicity) | 1 (1%-39% of herbicidal efficacy or phytotoxicity) | 4 (90%-100% of herbicidal efficacy or phytotoxicity) | 10 |  |  |  |  |  |  |
| CCCCCOC(=O)N(c1ccccc1CN1CC(C)(C)OC1=O)S(=O)(=O)C(F)(F)F [1-92] | 4 (90%-100% of herbicidal efficacy or phytotoxicity) | 4 (90%-100% of herbicidal efficacy or phytotoxicity) | 4 (90%-100% of herbicidal efficacy or phytotoxicity) | 4 (90%-100% of herbicidal efficacy or phytotoxicity) | 4 (90%-100% of herbicidal efficacy or phytotoxicity) | 3 (70%-89% of herbicidal efficacy or phytotoxicity) | 4 (90%-100% of herbicidal efficacy or phytotoxicity) | 30 |  |  |  |  |  |  |
| CC(C)COC(=O)N(c1ccccc1CN1CC(C2CC2)(C2CC2)OC1=O)S(=O)(=O)C(F)(F)F [1-171] | 4 (90%-100% of herbicidal efficacy or phytotoxicity) | 4 (90%-100% of herbicidal efficacy or phytotoxicity) | 4 (90%-100% of herbicidal efficacy or phytotoxicity) | 4 (90%-100% of herbicidal efficacy or phytotoxicity) | 4 (90%-100% of herbicidal efficacy or phytotoxicity) | 1 (1%-39% of herbicidal efficacy or phytotoxicity) | 4 (90%-100% of herbicidal efficacy or phytotoxicity) | 10 |  |  |  |  |  |  |
